Test results from US20090170926A1, “Antiviral agents” (Monash Univeristy, priority 2004, published 2009).
Where two headings read alike, the source gives them in different places.

Experiments:
[1] = test system: HBV containing mutations associated with resistance to lamivudine (L180M and L180M/M204V in the HBV DNA polymerase) in HepG2 hepatoma cells; assay: HBV core protein level in HepG2 hepatoma cells infected with lamivudine-resistant HBV (non-denaturing Western blot); assay type: cell-based, hepatitis B virus; conditions: day 5, HBV core protein vs controls
Procedure: Antiviral activity was also examined in HepG2 hepatoma cells infected with HBV containing mutations associated with resistance to lamivudine (3TC). Two cell lines containing an L180M mutation in the HBV DNA polymerase, and a double L180M/M204V mutation were used. Cells were plated out in six well plates and allowed to attach overnight. Next day, the culture medium was replaced with either medium alone or medium containing the desired concentration of antiviral compound. Media was changed for fresh medium with or without antiviral compound on day 3. On day 5, supernatant and cell lysatcs were analysed for levels of HBV core protein by non-denaturing Western blot using an anti-HBV core antibody.
Results for some of the compounds are shown in Table 2 where a 50% reduction or more in measured level of the viral core protein compared to controls at a compound concentration of greater than 50 μmolar is designated +50% core reduction at less than 50 μmolar is designated ++ and 50% core reduction at less than 10 μmolar compound concentration is designated +++.

[2] = test system: hepatitis B in 2.2.15 human hepatoma cells; assay: Antiviral activity in 2.2.15 human hepatoma cells infected with hepatitis B (viral DNA in supernatant); assay type: cell-based; conditions: Hepatitis B virus; for EC50: read-out: EC50 (effective concentration for 50% inhibition of the replication of the virus); for EC90: read-out: EC90 (effective concentration for 90% inhibition of the replication of the virus)
Procedure: Tests of antiviral activity were performed in 2.2.15 human hepatoma cells infected with hepatitis B according to the method of Korba and Gerin, Antiviral Research, 19, 55-70 (1992). Briefly, cells were seeded into 96 well plates and cell media containing various concentrations of the compounds was added. Media was changed daily for 9 days and fresh media containing compound was added each day. On the 10th day, viral DNA in the supernatant was measured and the reduction in the amount of virus in the supernatant was calculated compared to cells incubated without drug. Six separate replicates were performed for each drug concentration. The effective concentration for 50% and 90% inhibition of the replication of the virus was determined from dose response curves.

Solubility in water = assay type: physicochemical; conditions: read-out: solubility in water (fully soluble)
Procedure: The ^1H NMR can also be run in D2O, compound 13 is fully soluble in water at 10 mg/mL

[3] = 2.2.15 cells, 9 days treatment, viral DNA in supernatant on day 10

Structure (SMILES) | ≧50% core reduction [1] | melting point [°C] | other results
CC1(C)C=Cc2c(ccc3c2C(=O)C(Br)=C(O)C3=O)O1 [Compound 6, 9-Bromo-8-hydroxy-3,3-dimethyl-3H-naphtho[2,1-b]pyran-7,10-dione] | + (a 50% reduction or more in measured level of the viral core protein compared to controls at a compound concentration of greater than 50 μmolar is designated +) | – | –
Cc1ccc(S(=O)(=O)OC2=C(Br)C(=O)c3c(ccc4c3C=CC(C)(C)O4)C2=O)cc1 | – | 167 to 168 | –
CC1(C)CCc2c(ccc3c2C(=O)C=C(O)C3=O)O1 [Compound 2, 8-Hydroxy-3,3-dimethyl-1,2-dihydro-3H-naphtho[2,1-b]pyran-7,10-dione] | – | 183.5 to 187 | EC50 [2, 3]: 1100 nM; EC90 [2, 3]: 1300 nM
CC1(C)C=Cc2c(ccc3c2C(=O)C=C(O)C3=O)O1 [Compound 13, Sodium 3,3-dimethyl-7,10-dioxo-7,10-dihydro-3H-benzo[f]chromen-8-olate] | + (a 50% reduction or more in measured level of the viral core protein compared to controls at a compound concentration of greater than 50 μmolar is designated +) | – | solubility (Solubility in water): ≥ 10000 µg/mL
Cc1ccc(S(=O)(=O)OC2=C(Br)C(=O)c3ccc4c(c3C2=O)CCC(C)(C)O4)cc1 | – | 168 to 169.5 | –
Cc1ccc(S(=O)(=O)OC2=C(Br)C(=O)c3ccc4c(c3C2=O)C=CC(C)(C)O4)cc1 | – | 181.5 to 184 | –
CC1(C)C=Cc2c(ccc3c2C(=O)C=C(O)C3=O)O1 [Compound 1, 8-hydroxy-3,3-dimethyl-3H-naphtho[2,1-b]pyran-7,10-dione] | +++ (50% core reduction at less than 10 μmolar compound concentration is designated +++) | 208 | EC50 [2]: 600 nM; EC90 [2]: 3400 nM
Cc1ccc(S(=O)(=O)OC2=C(Br)C(=O)c3c(ccc4c3CCC(C)(C)O4)C2=O)cc1 | – | 109 to 115 | –
CC1(C)CCc2c(ccc3c2C(=O)C(Br)=C(O)C3=O)O1 [Compound 5, 9-bromo-8-hydroxy-3,3-dimethyl-1,2-dihydro-3H-naphtho[2,1-b]pyran-7,10-dione] | ++ (50% core reduction at less than 50 μmolar is designated ++) | 213 to 216 | –
CC1(C)CCc2c(ccc3c2C(=O)C(Cl)=C(Cl)C3=O)O1 | – | 158 to 160 | –
